Experimental data as given in ChEMBL document CHEMBL5230120, “Antiviral potential of natural products from marine microbes” (Eur J Med Chem, 2020).
Values after ≈ are worked out from the molar mass of the structure shown. Starred links: 1 amine or outer side, 2 acyl side, 3 side chain; linkers in the order of their positions; H or OH if unused. Positions of bridges follow the written chain, without caps; N, C: chain ends. Non-standard residues stand in square brackets, D forms with d. Residues, ends and D or L forms follow the SMILES beside them. X1 = CCCCCCCCC[C@@H](CCCC(=O)[*:1])O[*:2]; d(aThr) = C[C@@H](O)[C@@H](N)C(=O)O; aIle = CC[C@@H](C)[C@H](N)C(=O)O

Legend:
Human alphaherpesvirus 1 [1] = type: functional, organism-based; conditions: Human alphaherpesvirus 1, Vero, 72 h
Human alphaherpesvirus 1 [2] = type: functional, organism-based; conditions: Human alphaherpesvirus 1, Vero, 72 h; remark: listed apart in the source
Human alphaherpesvirus 1 [3] = type: functional, organism-based; conditions: Human alphaherpesvirus 1, KOS, Vero, 72 h
Chikungunya virus = assay: Antiviral activity against CHIKV infected in Golden hamster BHK-21 cells assessed as reduction in viral titer incubated for 3 days by plaque assay; type: functional, organism-based; conditions: BHK-21, 72 h
Human alphaherpesvirus 1 [4] = type: functional, organism-based; conditions: Human alphaherpesvirus 1, Vero, 72 h; remark: listed apart in the source
Human alphaherpesvirus 1 [5] = type: functional, organism-based; conditions: Human alphaherpesvirus 1, Vero, 72 h; remark: listed apart in the source
[6] = system: Human immunodeficiency virus 1; assay: Antiviral activity against HIV1 VSV-G pseudotyped virus infected in human SUP-T1 cells infected using supernatant of virus-producing 293T cells incubated for 48 hrs by firefly luciferase assay; type: functional, organism-based; conditions: Human immunodeficiency virus 1, HEK293, 48 h
Hepatitis C virus = assay: Antiviral activity against HCV infected in human Huh7.5 cells incubated for 72 hrs by RT-PCR assay; type: functional, organism-based, Hepacivirus hominis; conditions: Huh7.5, 72 h
Influenza A virus [7] = type: functional
[8] = system: Respiratory syncytial virus; type: functional, organism-based; conditions: human respiratory syncytial virus, HEp-2
Influenza A virus [9] = assay: microbe, parasite or virus in culture; conditions: A/WSN/33 (H1N1), MDCK
Influenza A virus [10] = assay: microbe, parasite or virus in culture; conditions: H3N2, Vero
Influenza A virus [11] = type: functional, organism-based; conditions: A/Puerto Rico/8/1934(H1N1), MDCK, 48 h
Dengue virus = assay: Antiviral activity against Dengue virus serotype 2 infected in HEK293T/17 cells assessed as reduction in viral production at 50 uM incubated for 24 hrs by flow cytometric analysis; type: functional; set-up: scale not given: the % may be the effect or the level left
Enterovirus A71 = type: functional, organism-based; conditions: Enterovirus A, Vero
[12] = Cytotoxicity against human HEK293 cells assessed as reduction in cell viability; type: toxicity, cell-based

SMILES: COc1ccc(-c2cc3c(c(=O)o2)C[C@H]2[C@@](C)(CC[C@@]4(O)C(C)(C)OC(=O)CC[C@]24C)O3)cc1
- IC50 (Human alphaherpesvirus 1 [1]): 16.4 µg/mL (≈ 35 µM)

SMILES: C[C@@H]1C/C=C/C(=O)C/C=C/[C@H](O)CC(=O)O1
- IC50 (Human alphaherpesvirus 1 [2]): 0.45 µM

SMILES: COc1cc(O)c2c(c1)[C@H](O)[C@](O)(CC(C)=O)CC2=O
- IC50 (Human alphaherpesvirus 1 [3]): 0.1 µg/mL (≈ 0.357 µM)

SMILES: COc1cc(O)c2c(c1)[C@H](O)[C@@H](CC(C)=O)CC2=O
- IC50 (Human alphaherpesvirus 1 [3]): 1 µg/mL (≈ 3.78 µM)

SMILES: COc1cc(O)c2c(c1)[C@H](O)[C@@H](CO)CC2=O
- IC50 (Human alphaherpesvirus 1 [3]): 1 µg/mL (≈ 4.2 µM)

SMILES: COc1ccc(-c2cc3c(c(=O)o2)C[C@]2(O)[C@@]4(C)C(=O)C=CC(C)(C)[C@]4(O)CC[C@@]2(C)O3)cc1OC
- IC50 (Human alphaherpesvirus 1 [1]): 6.34 µg/mL (≈ 12.8 µM)

SMILES: CO[C@@H](CC[C@H](C)[C@H]1O[C@@]23C[C@H](OC(=O)C[C@H]([C@@H](C)O)OC(=O)C[C@](OC)(O2)[C@H](C)CC3(C)C)[C@@H]1C)c1cccc(O)c1
- IC50 (Chikungunya virus): 2.7 µM

SMILES: Nc1nc2c(ncn2COCCO)c(=O)[nH]1 [ACYCLOVIR]
- EC50 (Human alphaherpesvirus 1 [4]): 3 µM
- IC50 (Human alphaherpesvirus 1 [5]): 3.5 µM

SMILES: CC[C@H](C)c1nc(OC)c(Cc2c[nH]c3ccccc23)nc1O
- IC50 [6]: 4.6 µM
- IC50 (Hepatitis C virus): 7.7 µM

SMILES: O=C1C[C@H](O)Cc2cc3cc(O)cc(-c4ccccc4)c3c(O)c21
- inhibition at 50 µg/mL (Influenza A virus [7]): 47.8%

SMILES: CC(=O)[C@H]1CC[C@H]2C3=CC(=O)[C@@]4(C)C[C@H](O)CC[C@]4(C)[C@H]3CC[C@]12C
- IC50 [8]: 0.12 µM

SMILES: COc1cc(O)c2c(c1)[C@@H]1OC(C)(OC)C[C@]1(O)CC2=O (some centres undefined)
- IC50 (Human alphaherpesvirus 1 [3]): 0.1 µg/mL (≈ 0.34 µM)

SMILES: C=C(C)C#CC1=C[C@@H]2O[C@@H](C(C)(C)O)C[C@]23O[C@@H]3[C@@H]1O
- IC50 (Influenza A virus [9]): 30.4 µM

SMILES: CCOC(=O)C1=C[C@@H](OC(CC)CC)[C@H](NC(C)=O)[C@@H](N)C1 [OSELTAMIVIR]
- IC50 (Influenza A virus [9]): 46.7 µM
- IC50 (Influenza A virus [10]): 0.034 µM

SMILES: COc1cc(O)c2c(c1)[C@H](O)[C@](O)(CO)CC2=O
- IC50 (Human alphaherpesvirus 1 [3]): 1 µg/mL (≈ 3.93 µM)

SMILES: COC(=O)[C@]1(Cc2ccc3c(c2)CCC(C)(C)O3)OC(=O)C(O)=C1c1ccc(O)cc1
- IC50 (Human alphaherpesvirus 1 [1]): 28.9 µg/mL (≈ 68.1 µM)

SMILES: CCC[C@H]1C[C@H]2OC(=O)c3c(cc(O)c(OC)c3O)[C@H]2O1
- IC50 (Influenza A virus [11]): 172 µM

SMILES: CC(C)[C@@H]1NC(=O)[C@@H](C[C@@]2(O)c3ccccc3N3C(=O)C(C)(C)N[C@@H]32)n2c1nc1ccccc1c2=O
- Activity (Dengue virus): 50%

SMILES: CC(C)CC[C@@H]1NC(=O)/C(=C/c2ccccc2)NC1=O
- IC50 (Influenza A virus [11]): 6.8 µM

SMILES: CO[C@@H](CC[C@H](C)[C@H]1O[C@@]23C[C@H](OC(=O)C[C@H]([C@@H](C)O)OC(=O)C[C@](O)(O2)[C@H](C)CC3(C)C)[C@@H]1C)c1cccc(O)c1 [DEBROMOAPLYSIATOXIN]
- IC50 (Chikungunya virus): 1.3 µM

SMILES: Cc1c2c(c3oc4c(C)c(=O)c(C)c5c-4c(c3c1O)O[C@H](C)[C@H]5C)O[C@H](C)[C@H]2C
- IC50 (Enterovirus A71): 14.5 µM

SMILES: C=C(CC[C@@H](C)[C@H]1CC=C2C3=C(CC[C@@]21C)[C@@]1(C)CC[C@H](O)C[C@@H]1CC3=O)C(C)C
- IC50 [6]: 3.5 µM

SMILES: CCCCCCCCC[C@H]1CCCC(=O)N[C@H]([C@@H](C)O)C(=O)N[C@H](C)C(=O)N2CCC[C@H]2C(=O)N[C@@H](CCC(N)=O)C(=O)N[C@H](Cc2ccc(O)cc2)C(=O)N[C@@H]([C@H](C)CC)C(=O)O1 ([d(aThr)][dA]PQ[dY][aIle]; linker N-C via X1)
- EC50 (Human alphaherpesvirus 1 [4]): 14 µM

SMILES: O=C1Nc2ccc(Cl)cc2[C@@](C#CC2CC2)(C(F)(F)F)O1 [EFAVIRENZ]
- IC50 [12]: 40.6 µM

SMILES: CCCCC/C=C/C1=C(CO)[C@@H]2OC(C)(C)[C@@H](O)C[C@@]23O[C@H]3[C@@H]1O
- IC50 [8]: 30.2 µM

SMILES: CC(C)/C=c1\[nH]c(=O)/c(=C/c2ccc(O)cc2)[nH]c1=O
- IC50 (Influenza A virus [11]): 41.5 µM
